The values below come from ChEMBL document CHEMBL5346970, “Targeting EP2 Receptor for Drug Discovery: Strengths, Weaknesses, Opportunities, and Threats (SWOT) Analysis” (J Med Chem, 2023).

The subject of data set [1] is SK-N-AS. Description: Antitumor activity against human SK-N-AS cells xenografted in athymic nude mouse assessed as reduction in tumor proliferation at 20 mg/kg, ip administered once daily for 18 days by Ki-67 staining based immunohistochemistry analysis relative to control. In kind it is functional. The arrangement: scale not given: the % may be the effect or the level left. The settings on record: time 18 day. In general terms: Xenograft models place foreign cells or tissue in a host animal.

The subject of data set [2] is SK-N-AS. Nature of the data set: Antitumor activity against human SK-N-AS cells xenografted in athymic nude mouse assessed as reduction in tumor proliferation at 10 mg/kg, ip administered once daily for 18 days by Ki-67 staining based immunohistochemistry analysis relative to control. It counts as functional. On the set-up: scale not given: the % may be the effect or the level left. The settings on record: time 18 day.

A short description of data set [3]: Terminal half life in Sprague-Dawley rat at 0.1 ml/kg, po. In kind it is ADME. The following applies: in vivo, read-out: beta t1/2 (converted).
A short description of data set [4]: Oral bioavailability in Sprague-Dawley rat at 0.1 ml/kg. It counts as ADME, organism-based. The following applies: in vivo.
Data set [5] addresses Prostaglandin E2 receptor EP2 subtype (Mus musculus, UniProt Q62053). Nature of the data set: Antagonist activity at EP2 receptor in C57BL/6 mouse trachea assessed as inhibition of PGE2-induced relaxation in rings of trachea pretreated for 30 mins in presence of carbachol followed by PGE2 relaxation. It counts as functional, tissue-based.

Chain of Prostaglandin E2 receptor EP2 subtype (Q62053 whole entry): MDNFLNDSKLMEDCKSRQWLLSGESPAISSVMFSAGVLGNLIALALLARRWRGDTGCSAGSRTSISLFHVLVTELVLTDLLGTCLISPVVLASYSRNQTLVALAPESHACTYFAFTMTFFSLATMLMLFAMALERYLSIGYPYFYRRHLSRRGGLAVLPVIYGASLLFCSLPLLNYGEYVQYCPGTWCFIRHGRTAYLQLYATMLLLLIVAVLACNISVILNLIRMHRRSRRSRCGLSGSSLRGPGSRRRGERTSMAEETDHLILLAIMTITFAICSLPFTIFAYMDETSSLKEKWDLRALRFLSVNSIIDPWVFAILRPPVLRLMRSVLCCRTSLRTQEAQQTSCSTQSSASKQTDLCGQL

Regarding `CCc1nnc(NS(=O)(=O)c2ccc(NC(=S)NC(=O)/C=C/c3ccc(F)cc3)cc2)s1`, the Activity in data set [1] is on record as 55%; in data set [2], 25%.
As a reminder, the bioavailability is dose-corrected exposure relative to a reference, in per cent. One may read the IC50 as the midpoint of a concentration-inhibition curve. Consider `COc1ccc2cc(OCC3(C(=O)O)CN(C(=O)c4ccc(F)cc4)C3)ccc2c1` [PF-04418948], for which the half-life in data set [3] is 528 min. Also, the bioavailability in data set [4] came out at 78%. Moreover, in data set [5], the IC50 was 2.7 nM.
